Results on two compounds are retold here after US20250353835A1, “N-TETRAZOLYL ARYL UREA-BASED DERIVATIVES, PREPARATION METHOD THEREFOR, AND USE THEREOF” (Hangzhou Yirui Pharmaceutical Technology Co., Ltd, priority 2022, published 2025).

The subject of data set [1] is rat model of diabetic retinopathy. Kind of data set: Rat model of diabetic retinopathy (STZ). Type of data set: in vivo, Wistar rats. To be noted: Concanavalin A/FITC; 14 days after intravitreal injection; compounds 0.25%, dexamethasone 0.1%. As for the experimental part: 3.1 Laboratory animals: SPF-grade male Wistar rats, weighed 180-220 g.
3.3 Animal modeling and grouping: After one week of adaptive feeding, 134 male Wistar rats (weighed 220-260 g) were administered 65 mg/kg of STZ by one-time intraperitoneal injection to prepare a rat model of type I diabetic. The rats were fasting but water was allowable overnight for 15 h. The formulated STZ solution was intraperitoneally injected according to body weight. After 1 h, the diet was resumed and blood glucose was measured at 72 h. The successfully modeled diabetic rats (120 rats) were selected for continued feeding, and randomly divided into the following 6 groups according to blood glucose (20 rats per group), plus a group of normal rats with no STZ injected as a negative control group.
3.4 Administration: The rats continued to be fed until blood glucose was measured once before administration. After blood glucose reached the standard, drugs were intravitreally injected, and indexs were subsequently tested after 14 days. Blood glucose was measured once before sampling.
3.5 Evans blue staining method (7 groups, 6 rats per group): Evans blue was intravenously injected. 2 hours later, normal saline was perfused into the left ventricle. The retina was taken to compare between the stained area and the unstained area to detect retinal vascular permeability.
3.6 Retinal leukocyte stasis detection method (7 groups, 6 rats per group): PBS was perfused into the left ventricle for 1 min to remove red blood cells and other substances. Concanavalin A (FITC (Sigma, C7642) was perfused (20 μg/ml in PBS, 5 mg/kg) to mark adherent leukocytes. 4% PFA was perfused for 4 min for fixation. 1% Albumin (Sigma, A6414) (in PBS) was perfused for 1 min, and then PBS was perfused for 2 min. The retina was taken for retinal wholemount. Thereafter, the stasis of leukocytes on the vascular endothelium was observed under a fluorescence microscope. […]

The test system of data set [2] is mouse model of ragweed pollen-induced allergic conjunctivitis. Briefly: Mouse model of ragweed pollen-induced allergic conjunctivitis. Format: in vivo, Balb/c mice. As for the experimental part:
SPF-grade Balb/c mice (half male and half female, 6-8 weeks old) were used as experimental animals. On Day 0 and Day 6, ragweed pollen footpad injection was injected subcutaneously into the footpads of mice for sensitization (65 μl per mouse). On Days 10-14, in the model group, eye drop of ragweed pollen was applied to both eyes of the mice (10 μl per mouse) once a day. The eye drops were applied for 5 consecutive days to trigger local allergic conjunctivitis (Wu B, et al., Frontiers in Immunology, 2021, 12:4754). […] On Day 14, within 30 minutes after the final challenge, the ocular clinical symptoms of the mice were observed under a microscope and scored according to the scoring criteria reported by Magone et al. (MerayoLloves J, et al., J Allergy Clin Immunol (1996) 97(5):1129-40; Magone M T, et al., Clin Immunol Immunopathol (1998) 87(1):75-84), the allergic response of the eyes were observed, including 4 indexes: conjunctival edema, conjunctival congestion, eyelid congestion and edema, and tearing. The scores were recorded as 0-3 points according to the severity (including none, mild, moderate and severe). The left eye of the mouse was taken with the eyelid (keeping the conjunctiva intact), fixed with polyformaldehyde, sectioned in paraffin, Hematoxylin-Eosin stained (HE stained), and toluidine blue stained (for detection of mast cells). Photographs were taken to analyze the inflammatory cell infiltration of the conjunctival tissue, and observe whether the mast cells in the conjunctiva aggregated and whether a phenomenon of degranulation occurred. The expression of allergic indicators IL-4 and IgE in the conjunctival tissue was detected by immunohistochemistry.
The mouse eye, including the eyelids (with intact conjunctiva), was sectioned after deparaffinization, and subjected to antigen retrieval and serum blocking.
Diluted IL-4 or IgE antibodies were added and incubated overnight. After incubation with secondary antibodies, DAB staining was performed, followed by counterstaining with hematoxylin. The slides were then mounted and observed under an […], with photographs taken. Semi-quantitative analysis was conducted using Image-J software. Based on the cumulative optical density and regional area values of each image, the average optical density was calculated to detect the positive expression of IL-4 or IgE.

The subject of data set [3] is rat model of acute lung injury. Briefly: Rat model of LPS-induced acute lung injury. Format: in vivo, Wistar rats. The note with it: ELISA; test drug 30 mg/kg i.p. 2 h before and 1 h after LPS; 12 h after modeling. The arrangement: IL-6 (serum) / IL-6 (homogenate of lung tissue) / IL-6 (bronchoalveolar lavage fluid) / TNF-α (serum) / TNF-α (homogenate of lung tissue) / TNF-α (bronchoalveolar lavage fluid): unit not given here. As to the method: 1. Experimental aminals: SPF-grade male Wistar rats, weighed 180-220 g, 6-8 weeks old.
3. Establishment of animal model: The rats were adaptively fed for one week. After the animals were anesthetized, 3 mg/kg LPS (B8) was injected intratracheally to prepare the rat model of acute lung injury.
4. […] At 2 hours before modeling (before tracheal injection of LPS), the test drug (30 mg/kg, the vehicle was 0.3% DMSO in saline) was intraperitoneally injected. At 1 hour after modeling, the test drug was administered once again (at the same dose). At 12 hours after modeling, the animals were sacrificed, and the samples were collected for the tests of various indexes. […]
5.2 ELISA method: 5 rats per group. The serum, alveolar lavage fluid, and tissue homogenate of one lung of each of the rats were subjected to ELISA assay to determine the TNF-α and IL-6 levels.
On the technique in general: An ELISA detects its analyte on a solid surface through an enzyme-linked reagent.

A short description of data set [4]: Drug concentration in rat retinas after intraocular injection (HPLC). Format: in vivo, Wistar rats. The note with it: male, Wistar, rat, retina, other: intraocular injection, 5 μL of 0.5% solution per eye; Day 7 after intraocular injection of 0.5% (5 μL per eye); read-out: retinal drug concentration. The text has this:
1.1 Experimental aminals: SPF-grade male Wistar rats weighed 180-220 g.
1.2 Drugs and reagents: Compound 71; sodium chloride injection (Shandong Qidu Pharmaceutical Co., Ltd., Batch No.: 3B151014124); acetonitrile (chromatographically pure, TEDIA, USA); methanol (chromatographically pure, SIGMA-ALDRICH product); triethylamine (analytically pure, Hangzhou Gaojing Fine Chemical Co., Ltd.).
1.3 Experimental grouping and administration: according to the sampling time, 33 male Wistar rats were divided into 11 groups (three rats per group) of: (1) control group; (2) 0 h; (3) 2 h; (4) 6 h; (5) 24 h; (6) 48 h; (7) 72 h; (8) 5 d; (9) 7 d; (10) 10 d; (11) 14 d. Three rats in the control group were injected with solvent (sterile normal saline) intraocularly, and the remaining 30 rats were injected with Compound 71 intraocularly at a concentration of 0.5% by using a 5 μL microinjector, and 5 μL of drug was injected per bulbus oculi.
1.4 Sampling and detection index: The retina of the rat in the control group was taken on Day 14 (14 d), and the retina of the remaining 30 rats was taken at the corresponding time points. The retina were frozen in liquid nitrogen, and then subjected to the subsequent HPLC detection.
1.5.1 Chromatographic conditions: The mobile phase was chromatographic grade acetonitrile-water=25-75 (v/v). The flow rate was 0.5 mL/min. The column temperature was 25° C. The UV detection wavelength was 254 nm. The injection volume was 20 μL.
1.5.2 Sample processing and preparation: the sample of the rat retina was taken out from the ultra-low temperature (−80° C.) refrigerator, accurately weighed and placed in a glass homogenizer, and ethyl acetate as an organic solvent pre-cooled in a 4° C. refrigerator was added at a ratio of 100 mL/g. The homogenizer was placed in an ice bath for homogenization. After homogenization, all the homogenate was poured into a 5 mL stoppered centrifuge tube. The centrifugation was performed at a low temperature of 4° C. for 5 min (5000 r/min). All the organic phase as the upper layer was accurately taken out and placed in a glass tube with conical bottom. The remaining residue of retina was extracted with 2 mL ethyl acetate repeatedly once. After centrifugation, the two organic phases were combined. Then, the centrifuge tube with conical bottom was blowed for dryness in a nitrogen flow in a 45° C. water bath. The residue was redissolved with 0.1 mL of chromatographic methanol, vortex mixed for 1 min, and centrifuged for 5 min at a high speed of 18000 r/min. 20 μL of the supernatant was taken, and analyzed in a high-performance liquid chromatography system.
1.5.3 Sample determination: After intraocular injection of 5 μL of 0.5% Compound 71, the retina was taken at different time points to analyze the drug content of the test compound in the retina.
1.5.4 Experimental results and conclusions: According to the retinal drug concentration-time curve, it is in conformity to the non-absorption two-compartment model. According to the pharmacokinetic non-absorption two-compartment model theory, the pharmacokinetic parameters of the drug were calculated.

Another data set addresses T1, human B1R (Homo sapiens, UniProt P46663).
T1 construct: host or cells: HEK293
T1 sequence (P46663 1-353): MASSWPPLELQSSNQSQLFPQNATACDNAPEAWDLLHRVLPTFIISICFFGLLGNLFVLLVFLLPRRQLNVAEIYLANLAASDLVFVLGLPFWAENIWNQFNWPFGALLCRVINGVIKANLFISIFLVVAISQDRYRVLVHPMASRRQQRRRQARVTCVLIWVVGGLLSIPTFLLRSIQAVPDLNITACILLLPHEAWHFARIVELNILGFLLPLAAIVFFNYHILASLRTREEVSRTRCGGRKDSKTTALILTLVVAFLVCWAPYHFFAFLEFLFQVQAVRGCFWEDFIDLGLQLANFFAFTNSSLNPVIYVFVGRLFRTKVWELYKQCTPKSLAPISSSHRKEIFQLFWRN
Kind of data set: FLIPR calcium ion flux assay, inhibitory activity against human B1R. Type of data set: cell-based. To be noted: HEK293 cells stably expressing human B1R; agonist [Lys-des-Arg9]-Bradykinin 4.6 nM (EC80); FLIPR method. The procedure, abridged: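 HEK293 cells stably expressing human B1R, loaded with Fluo-4 Direct plus probenecid; compounds 9-point 1:5 series from 30 μM, duplicate, preincubated 10 min. Stimulation with [Lys-des-Arg9]-bradykinin at 4.6 nM final (EC80); peak fluorescence at 538 nm gave IC50.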

[5] abbreviates: immunohistochemistry, dexamethasone 0.1% eye drop.

As for `C[C@@H]1C[C@H]2[C@@H]3CCC4=CC(=O)C=C[C@]4(C)[C@@]3(F)[C@@H](O)C[C@]2(C)[C@@]1(O)C(=O)CO` [Dexamethasone, dexamethasone, reference compound], the “retinal leukocyte stasis, Leukocyte count” value in data set [1] was 4.17 ± 3.21. The Clinical symptom score in data set [2] (0.1% dexamethasone eye drop, twice a day for 14 days, Day 14 within 30 minutes after final challenge) is recorded as 4.75 ± 0.51. In data set [2] (setting [5]), the “expression of IL-4 in ocular tissue (average optical density)” value was 0.23±0.09 and the “expression of IgE in ocular tissue (average optical density)” value amounted to 0.53±0.11. Also, in data set [3], the “IL-6 (bronchoalveolar lavage fluid)” value worked out at 115.59 ± 67.57, the “IL-6 (homogenate of lung tissue)” value came out at 150.17 ± 100.46, the “IL-6 (serum)” value worked out at 255.58 ± 109.87 and the “TNF-α (bronchoalveolar lavage fluid)” value is 13.62 ± 7.33. In data set [3], the “TNF-α (homogenate of lung tissue)” value is given as 19.17 ± 7.55 and the “TNF-α (serum)” value came out at 57.26 ± 19.27.

As usually defined, the IC50 is the concentration that gives 50% inhibition. In the case of `COc1ccc(-c2ccc(NC(=O)N3CCC(C(F)(F)F)CC3)cc2-c2nn[nH]n2)cc1OC` [Compound 2, N-(3′,4′-dimethoxy-2-(2H-tetrazol-5-yl)-[1,1′-biphenyl]-4-yl)-4-(trifluoromethyl)piperidine-1-carboxamide], the concentration at 7 d in data set [4] came to 1540 nM. For the same compound, the IC50 on human B1R came to 148 nM.
